Holding throughout (assay): NCI anticancer screen, dose series, 48 h
The subject of assay [1] is DU-145 prostate.
The subject of assay [2] is MCF7 breast.
The subject of assay [3] is NCI-H226 lung.
Assay [4] deals with NCI-H460 lung.
Assay [5] has as its system OVCAR-3 ovarian.
Assay [6] deals with SF-268 CNS.
The subject of assay [7] is SK-OV-3 ovarian.
Assay [8] concerns SW-620 colon.
Assay [9] concerns T-47D breast.
In assay [10] the test system is HS 578T breast.

In PubChem BioAssay (NCI) one finds TGI and GI50 data, which are given here for 16 compounds.

Where “and” joins values, the source holds several entries; their conditions need not be identical. Identical values can stand only once.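 Results reflect a 48-hour exposure of cells in 96-well plates to compound at five concentrations. The concentration for 50% growth inhibition is given as GI50. TGI denotes the concentration required for complete inhibition of growth.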

Regarding `CC(C)c1ccc(/C=C2\CSCC3=C2NC(=S)NC3c2ccc(C(C)C)cc2)cc1` (stereo unspecified), the TGI in [1], in assay [2], in assay [3], in assay [4], in assay [5] and in assay [6] was > 100 µM throughout. The TGI in [7], in assay [8] and in assay [9] was > 100 µM in each case.
`N#C[S-].[Nd+3].c1ccc(-c2ccccn2)nc1.c1ccc(-c2ccccn2)nc1.c1ccc(-c2ccccn2)nc1`: the GI50 in [3] was 2.89 µM; in assay [4] it was 4.25 µM; in [5], 37.6 µM; in assay [7], 6.93 µM; in assay [8] it was 5.93 µM. The TGI in assay [3] is 7.52 µM; in assay [4] it was 37.3 µM; in assay [5], > 100 µM; in assay [7] it was > 100 µM; in assay [8], > 100 µM.
`Nc1ccccc1N/C=C\C(=O)C(Cl)(Cl)Cl`: the TGI in assay [1] is 75.1 µM; in assay [10], > 100 µM; in assay [2] it was 30.7 µM; in assay [3], > 100 µM; in [4], > 100 µM; in assay [6], > 100 µM. Besides, the TGI in [7] was determined as 70.8 µM; in [8], 48.1 µM; in [9], 43.1 µM.
Turning to `NC(=O)C#CC(N)=O`, the TGI in assay [2] was 48.5 µM and 56.8 µM; in [3], 169 µM and > 100 µM; in assay [4], 146 µM and 126 µM and > 100 µM; in [5] it was 90.2 µM and 66.5 µM and > 100 µM; in [7], 231 µM and 214 µM and > 100 µM; in assay [8], 18.2 µM and 12.1 µM and 31.1 µM. Also, the GI50 in assay [3] was 73.6 µM; in [4], 38.3 µM and 32.8 µM and > 100 µM; in [5], 26.5 µM and 22.8 µM and > 100 µM; in assay [8] it was 5.74 µM and 3.1 µM and 15.2 µM.
Consider `Cc1cccc(C2=NC(C)(C)C(C)(C)N=C2c2cccc(C)n2)n1`, for which the TGI in assay [3], in assay [4], in [5], in assay [6], in assay [7] and in [8] was > 100 µM in each case.
For the compound `[N-]=[N+]=CC(=O)OCC1SCCCS1`, the TGI in assay [1], in assay [2], in assay [3], in [4], in assay [5] and in assay [6] was > 100 µM throughout. Moreover, the TGI in [7] and in assay [8] was > 100 µM throughout.
With `Cc1ccc(N2CCc3c(C)c(C#N)c4nc5ccccc5n4c32)cc1`, the TGI in [1] is > 100 µM; in [10], 48.3 µM; in [2], > 100 µM; in assay [3], > 100 µM; in [4], > 100 µM; in [5], > 100 µM. The TGI in [6], in [7] and in [8] was > 100 µM in each case.
For `C=C1C(=O)OCC2C(C(=O)O)=CC3C(C)C(C)=CC123` (stereo unspecified), the TGI in [2] is 23.9 µM; in [3], 52.1 µM; in assay [4], 29.2 µM; in [5] it was 31.3 µM; in [6], 32.8 µM; in assay [7] it was 79.5 µM. The same compound yielded a TGI in [8] of 40.9 µM.
Regarding `O=c1c(C=Nc2ccc([N+](=O)[O-])cc2)c(O)n(-c2ccccc2)c(=O)n1-c1ccccc1`, the TGI in [10], in assay [2], in assay [3], in assay [4], in assay [5] and in [6] was > 100 µM each time. The TGI in assay [7], in [8] and in assay [9] was > 100 µM each time.
As to `Cc1cccc(NC(=O)C(=O)C(C(=O)c2ccccc2F)C2OC(=O)c3ccccc32)c1Cl` (stereo unspecified), the TGI in assay [3] was 62.3 µM; in [4], > 100 µM; in assay [6] it was 80.9 µM; in [7] it was > 100 µM; in [8] it was > 100 µM.
On to `CCCCOP1(=O)C=C(C)C(=C(Cl)Cl)C(C)=C1` (stereo unspecified), for which the TGI is 13 µM in [3]; 36 µM in [4]; 39.1 µM in assay [5]; 27.3 µM in assay [6]; 49.8 µM in [7]; > 40 µM in assay [8].
Turning to `c1ccc2c(c1)nc(NC1CCCC1)c1[nH]c(C3CCCC3)nc12`, the TGI in [3] was 45.1 µM; in assay [4], 27.1 µM; in assay [5], 27.9 µM; in assay [6], 47 µM; in assay [7], > 62.5 µM; in assay [8] it was 21.2 µM.
Take `CSC1=C(C#N)C(=O)N(c2ccc(C)cc2)C(=S)C1C#N` (stereo unspecified): the TGI in [10], in [2], in assay [3], in assay [4], in assay [6] and in assay [7] was > 100 µM each time. Moreover, in assay [8], the TGI is > 100 µM.
For `O=[Se](=O)c1ccccc1.O=[Se](=O)c1ccccc1.[Cu]`, the GI50 was 24.1 µM in assay [2]; 21.7 µM in assay [3]; 8 µM in [4]; 13.7 µM in assay [5]; 17.8 µM in assay [6]; 27.3 µM in assay [7]. For the same compound, the GI50 in [8] was 17.5 µM. For the same compound, the TGI came out at 62 µM in [2]; 39.6 µM in assay [3]; 20 µM in [4]; 32.7 µM in assay [5]; 33.1 µM in [6]; 42.1 µM in [7]. This compound also returned a TGI in assay [8] of 33.8 µM.
`COc1ccc2c(c1)n([O-])c(C#N)c(N1CCN(c3ccc([N+](=O)[O-])cc3)CC1)[n+]2=O`: the TGI is > 84.1 µM in assay [1]; > 24.4 µM in assay [10]; > 100 µM in assay [3]; > 100 µM in [4]; > 100 µM in [5]; > 34.4 µM in [6]. Also, the values for the TGI in assay [7], in [8] and in assay [9] were > 59.5 µM, > 100 µM and 14.8 µM, respectively.
As to `C=C(C)C(=O)[C@@]12C(=O)[C@@H](C)CC[C@H]1[C@H](C)C[C@@H]2C=C(C)C`, the TGI was > 100 µM in assay [1]; 52.3 µM in assay [2]; > 100 µM in assay [3]; 38.5 µM in assay [5]; 36 µM in [6]; > 100 µM in [7]. Also, the TGI in [8] was determined as 44 µM.
